Results published in BindingDB's records for doi:10.1016/j.bmcl.2018.07.042 (Takeda Pharmaceutical, 2018).

Assay: Inhibition of human CCR6 expressed in CHO cells assessed as decrease in human CCL20-dependent cell migration incubated for 4 hrs by Diff-Quik staining based assay

| IC50 | Structure (SMILES) |
| --- | --- |
| 240 nM | N#Cc1ccc(NC2CCN(S(=O)(=O)c3ccc(-c4ccccc4)cc3)CC2)nc1 |
| 1400 nM | Cc1ccc(S(=O)(=O)N2CCC(Nc3ccc(C#N)cn3)CC2)cc1 |
